Experimental data published in the supplement of paper PMC4862054.
Values joined by “and” are separate entries in the source; they are usually repeats but may differ in a detail not shown here. Equal values may be shown once.

Experiments:
MDA-MB-468 [1] = details: 72 h
Outline: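 The plates used were 384-well plates holding compound at 5 concentrations in 10-fold steps across a compound-specific 10,000-fold range, into which breast cancer cell lines were seeded in 20 µl suspension. Following 72 h incubation, CellTox Green fluorescence was read at 485/520 nm, and CellTiter-Glo luminescence was read after 10 min at room temperature. Normalisation on each plate used 0.1 % DMSO and a positive kill control. Dose-response curves gave the EC50, which was censored at the top concentration.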

CAL-120 = experiment: drug sensitivity score (DSS), CellTiter-Blue viability (DSS (AUC-based score)); higher = stronger viability inhibition; extreme values may be limits of the assay; details: incubation time: 72 h
Description: (§1)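 DSRT with the CellTiter-Blue (resazurin reduction) viability readout, fluorescence 560/590 nm, 72 h incubation. Plates were normalised to DMSO and benzethonium chloride controls. DSS is computed from the area under the fitted dose-response curve (5 or 9 concentrations).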

MDA-MB-231 [2] = experiment: as above; details: incubation time: 72 h
Description: as §1

HCC1599 = experiment: as above; details: incubation time: 72 h
Description: as §1

DU-4475 = experiment: as above; details: incubation time: 72 h
Description: as §1

CAL-51 = experiment: as above; details: incubation time: 72 h
Description: as §1

HCC1937 = experiment: as above; details: incubation time: 72 h
Description: as §1

MDA-MB-453 = experiment: as above; details: incubation time: 72 h
Description: as §1

Hs578T = experiment: as above; details: incubation time: 72 h
Description: as §1

BT-549 = experiment: as above; details: incubation time: 72 h
Description: as §1

MDA-MB-436 [3] = experiment: as above; details: incubation time: 72 h
Description: as §1

MFM-223 [4] = experiment: as above; details: incubation time: 72 h
Description: as §1

CAL-85-1 = experiment: as above; details: incubation time: 72 h
Description: as §1

HCC1143 [5] = experiment: as above; details: incubation time: 72 h
Description: as §1

HDQ-P1 [6] = experiment: as above; details: incubation time: 72 h
Description: as §1

BT-474 = experiment: as above; details: incubation time: 72 h
Description: as §1

MDA-MB-468 [7] = experiment: as above; details: incubation time: 72 h
Description: as §1

SK-BR-3 = experiment: as above; details: incubation time: 72 h
Description: as §1

CAL-148 = experiment: as above; details: incubation time: 72 h
Description: as §1

MDA-MB-231 [8] = experiment: normalised response (% of control), CellTox Green; higher = less cell death (100 = DMSO, 0 = benzethonium chloride kill control); details: incubation time: 72 h
Outline: (§2)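 Breast cancer cell lines (20 µl suspension) were seeded into 384-well plates holding compound at 5 concentrations in 10-fold steps over a compound-specific 10,000-fold range, then incubated 72 h. CellTox Green fluorescence (485/520 nm) was read first, then CellTiter-Glo luminescence after 10 min at room temperature. Each plate was normalised to 0.1 % DMSO (100) and a positive kill control (0). Each value is the normalised signal at a single concentration of the series.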

MDA-MB-436 [9] = experiment: as above; details: incubation time: 72 h
Outline: as §2

MFM-223 [10] = experiment: as above; details: incubation time: 72 h
Outline: as §2

HCC1143 [11] = experiment: as above; details: incubation time: 72 h
Outline: as §2

MCF-10A = experiment: as above; details: incubation time: 72 h
Outline: as §2

HDQ-P1 [12] = experiment: as above; details: incubation time: 72 h
Outline: as §2

MDA-MB-468 [13] = experiment: as above; details: incubation time: 72 h
Outline: as §2

| Structure (SMILES) | EC50, CellTiter-Glo (MDA-MB-468 [1]) | drug sensitivity score (CAL-120) | drug sensitivity score (MDA-MB-231 [2]) | drug sensitivity score (HCC1599) | drug sensitivity score (DU-4475) | drug sensitivity score (CAL-51) | drug sensitivity score (HCC1937) | drug sensitivity score (MDA-MB-453) | drug sensitivity score (Hs578T) | drug sensitivity score (BT-549) | drug sensitivity score (MDA-MB-436 [3]) | drug sensitivity score (MFM-223 [4]) | drug sensitivity score (CAL-85-1) | drug sensitivity score (HCC1143 [5]) | drug sensitivity score (HDQ-P1 [6]) | drug sensitivity score (BT-474) | drug sensitivity score (MDA-MB-468 [7]) | drug sensitivity score (SK-BR-3) | drug sensitivity score (CAL-148) | normalised response (MDA-MB-231 [8]) | normalised response (MDA-MB-436 [9]) | normalised response (MFM-223 [10]) | normalised response (HCC1143 [11]) | normalised response (MCF-10A) | normalised response (HDQ-P1 [12]) | normalised response (MDA-MB-468 [13]) |
| --- | --- | --- | --- | --- | --- | --- | --- | --- | --- | --- | --- | --- | --- | --- | --- | --- | --- | --- | --- | --- | --- | --- | --- | --- | --- | --- |
| COc1cc2c(NC3CCN(C(C)C)CC3)nc(N3CCC(F)(F)CC3)nc2cc1OCCCN1CCCC1 [UNC0642] | 2050 nM |  |  |  |  |  |  |  |  |  |  |  |  |  |  |  |  |  |  |  |  |  |  |  |  |  |
| CCOC(=O)CCNc1cc(N2CCc3ccccc3CC2)nc(-c2ccccn2)n1 [GSK-J4] | 1890 nM |  |  |  |  |  |  |  |  |  |  |  |  |  |  |  |  |  |  |  |  |  |  |  |  |  |
| O=P1(N(CCCl)CCCl)NCCCO1 (stereo not drawn) [Cyclophosphamide] |  | 0 | 0 | 0 | 0 | 0 | 0 | 0 | 0 | 0 | 0.105 | 0 | 0 | 0 | 0 | 0 | 0 | 0 | 0 |  |  |  |  |  |  |  |
| COc1cc2ncnc(Nc3ccc(F)c(Cl)c3)c2cc1OCCCN1CCOCC1 [Gefitinib] | 2800 nM |  |  | 2.82 and 3.43 | 0 | 0 | 0 | 3.14 and 5.26 |  | 2.48 and 0.865 | 0 | 0 | 8.75 and 10.2 | 0 |  | 9.05 and 8.8 | 9.52 and 7.51 | 6.49 and 10.4 | 2.15 and 4.81 |  |  |  |  |  |  |  |
| COC(=O)c1ccc2c(c1)NC(=O)/C2=C(\Nc1ccc(N(C)C(=O)CN2CCN(C)CC2)cc1)c1ccccc1 [BIBF 1120] |  | 6.55 | 4.3 | 0 | 2.02 | 5.59 | 0 | 5.53 | 1.63 | 3.02 | 1.32 | 9.32 | 1.29 | 0 | 1.16 | 3.34 | 2.89 | 2.7 | 0 |  |  |  |  |  |  |  |
| COc1cc(O)c2c(c1)/C=C/C[C@H](O)[C@H](O)C(=O)/C=C\C[C@H](C)OC2=O [(5Z)-7-Oxozeaenol] | 953 nM |  |  |  |  |  |  |  |  |  |  |  |  |  |  |  |  |  |  |  |  |  |  |  |  |  |
| S=P(N1CC1)(N1CC1)N1CC1 [Thio-TEPA] |  | 0 | 3.37 | 0 | 0 | 0 | 0 | 0 | 0 | 0 | 0 | 0 | 0 | 0 | 0 | 0 | 0 | 0 | 0 |  |  |  |  |  |  |  |
| Nc1cc(C(F)(F)F)c(-c2cc(N3CCOCC3)nc(N3CCOCC3)n2)cn1 [BKM-120] |  | 8.37 | 8.24 | 8.97 | 6.63 | 11.6 | 6.85 | 13.8 | 5.79 | 8.93 | 4.25 | 9.9 | 9.38 | 5.44 | 9.78 | 9.72 | 6.64 | 16.8 | 8.55 |  |  |  |  |  |  |  |
| Cc1cc(Nc2cc(CN3CCOCC3)c3nc(C)c(Cc4ccc(Cl)cc4F)n3n2)n[nH]1 |  | 8.01 | 7.21 | 0 | 4.98 | 6.91 | 6.84 | 10.2 | 7.69 | 6.94 | 7.24 | 13.5 | 4.09 | 11.4 | 11.8 | 3.02 | 10.3 | 6.64 | 0 |  |  |  |  |  |  |  |
| CN(C)c1nc(N(C)C)nc(N(C)C)n1 [Altretamine] |  | 0 | 0 | 1.24 | 0 | 0 | 0 | 2.05 | 0 | 0 | 0 | 0 | 1.01 | 0 | 0 | 0 | 0 | 0 | 0 |  |  |  |  |  |  |  |
| COCC1(CO)C(=O)C2CCN1CC2 (stereo not drawn) [Prima-1 Met] |  | 0 | 0 | 0 | 0 | 0 | 3.72 | 0 | 0.00378 | 0 | 0 | 0 | 0 | 0 | 0 | 2.5 | 0 | 0 | 0 |  |  |  |  |  |  |  |
| C=C1C[C@@H]2[C@H](CC[C@]3(C)C(=O)CC[C@@H]23)[C@@]2(C)C=CC(=O)C=C12 [Exemestane] |  | 0 | 0 | 0 | 0 | 0 | 0 | 1.5 | 0 | 0 | 0 | 0 | 0 | 0 | 0 | 0 | 0 | 0 | 0 |  |  |  |  |  |  |  |
| Nc1cc(C(F)(F)F)c(-c2cc(N3CCOCC3)nc(N3CCOCC3)n2)cn1 [Buparlisib] | 2710 nM |  |  |  |  |  |  |  |  |  |  |  |  |  |  |  |  |  |  |  |  |  |  |  |  |  |
| Oc1ccc2c(c1)CC[C@H](c1ccccc1)[C@@H]2c1ccc(OCCN2CCCC2)cc1 [Lasofoxifene] |  | 0 | 0 | 0 | 0 | 0 | 0 | 0 | 0 | 0 | 0 | 0 | 0 | 0 | 0 | 0 | 0 | 0 | 0 |  |  |  |  |  |  |  |
| Cc1cc(Nc2cc(CN3CCOCC3)c3nc(C)c(Cc4ccc(Cl)cc4F)n3n2)n[nH]1 [Gandotinib] | 711 nM |  |  |  |  |  |  |  |  |  |  |  |  |  |  |  |  |  |  |  |  |  |  |  |  |  |
| CN(C)CCOc1ccc(/C(=C(/CCCl)c2ccccc2)c2ccccc2)cc1 [Toremifene] |  | 0 | 0 | 0 | 0 | 0 | 0 | 1.86 | 0 | 0 | 1.83 | 0 | 0 | 0 | 0 | 0 | 2.87 | 0 | 0 |  |  |  |  |  |  |  |
| CCc1c2c(nc3ccc(OC(=O)N4CCC(N5CCCCC5)CC4)cc13)-c1cc3c(c(=O)n1C2)COC(=O)[C@]3(O)CC [Irinotecan] | 1620 nM | 5.49 and 3.99 |  |  | 7.9 and 5.68 | 6.14 and 4.1 | 9.68 and 9.91 |  | 0 |  |  |  | 2.57 and 1.55 |  |  | 0 | 6.9 and 5.16 | 6.6 and 2.45 | 9.3 and 7.24 |  |  |  |  |  |  |  |
| C=C1C[C@@H]2[C@H](CC[C@]3(C)C(=O)CC[C@@H]23)[C@@]2(C)C=CC(=O)C=C12 [Exemestane] (1000 nM) |  |  |  |  |  |  |  |  |  |  |  |  |  |  |  |  |  |  |  | 99.6% | 95.1% | 100% | 108% | 112% | 116% | 149% |
| CCc1c2c(nc3ccc(OC(=O)N4CCC(N5CCCCC5)CC4)cc13)-c1cc3c(c(=O)n1C2)COC(=O)[C@]3(O)CC [Irinotecan] (10000 nM) |  |  |  |  |  |  |  |  |  |  |  |  |  |  |  |  |  |  |  | 106% | 97.1% | 103% | 95.2% | 100% | 74.4% | 119% |
| Oc1ccc2c(c1)CC[C@H](c1ccccc1)[C@@H]2c1ccc(OCCN2CCCC2)cc1 [Lasofoxifene] (1000 nM) |  |  |  |  |  |  |  |  |  |  |  |  |  |  |  |  |  |  |  | 119% | 109% | 95.5% | 112% | 67.1% | 86.1% | 178% |
| COC(=O)c1ccc2c(c1)NC(=O)/C2=C(\Nc1ccc(N(C)C(=O)CN2CCN(C)CC2)cc1)c1ccccc1 [Nintedanib] | 3360 nM |  |  |  |  |  |  |  |  |  |  |  |  |  |  |  |  |  |  |  |  |  |  |  |  |  |
| COc1cc2ncnc(Nc3ccc(F)c(Cl)c3)c2cc1OCCCN1CCOCC1 [Gefitinib] (10000 nM) |  |  |  |  |  |  |  |  |  |  |  |  |  |  |  |  |  |  |  | 68.6% | 98.4% | 104% | 113% | 82.9% | 94.9% | 133% |
| COCC1(CO)C(=O)C2CCN1CC2 (stereo not drawn) [Prima-1 Met] (10000 nM) |  |  |  |  |  |  |  |  |  |  |  |  |  |  |  |  |  |  |  | 123% | 62.3% | 93.1% | 93% | 106% | 102% | 119% |
| CNC(=O)c1cccc(-c2ccc3c(N4CCOC[C@@H]4C)nc(N4CCOC[C@@H]4C)nc3n2)c1 [AZD2014] | 497 nM |  |  |  |  |  |  |  |  |  |  |  |  |  |  |  |  |  |  |  |  |  |  |  |  |  |
